Test results from ChEMBL document CHEMBL1201862, “PubChem BioAssay data set” (2004).
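The compound was tested at five concentrations on cells cultured in 96-well plates, with a 48-hour exposure period. Here, GI50 denotes the concentration required for 50% inhibition of growth.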 Calls of active or inactive are those of the source. Cut-off read from the data, not from the text of the source: active = GI50 up to about 1.1 µM and inactive = higher.

Legend:
Assay in all cases: inhibition of tumour cell growth, NCI panel, 48 h
[1] = tested on: A498
[2] = tested on: A549
[3] = tested on: BT-549
[4] = tested on: CAKI-1
[5] = tested on: DU-145
[6] = tested on: HCT-116
[7] = tested on: HCT-15
[8] = tested on: HOP-92
[9] = tested on: HT-29
[10] = tested on: IGROV-1
[11] = tested on: MOLT-4
[12] = tested on: NCI-H23
[13] = tested on: NCI/ADR-RES
[14] = tested on: OVCAR-3
[15] = tested on: OVCAR-4
[16] = tested on: OVCAR-8
[17] = tested on: SF-268
[18] = tested on: SF-295
[19] = tested on: SK-OV-3
[20] = tested on: SN12C

Row | SMILES | GI50 [1] | GI50 [2] | GI50 [3] | GI50 [4] | GI50 [5] | GI50 [6] | GI50 [7] [µM] | GI50 [8] | GI50 [9] | GI50 [10] | GI50 [11] | GI50 [12] | GI50 [13] | GI50 [14] | GI50 [15] | GI50 [16] | GI50 [17] | GI50 [18] | GI50 [19] | GI50 [20]
1 | CN(C)C/C=C(/c1ccc(Br)cc1)c1cccnc1 | 20.3 µM (inactive) | 81.8 µM (inactive) | 79.4 µM (inactive) | 92.9 µM (inactive) | > 100 µM (inactive) | 71 µM (inactive) | > 100 | 64.6 µM (inactive) | 78.5 µM (inactive) | > 100 µM (inactive) | 47.9 µM (inactive) | > 100 µM (inactive) | 69.5 µM (inactive) | > 100 µM (inactive) | > 100 µM (inactive) | > 100 µM (inactive) | 65.8 µM (inactive) | 22.2 µM (inactive) | 71.1 µM (inactive) | > 100 µM (inactive)
2 | OCCCN=C1CCCCC1 | > 100 µM (inactive) | > 100 µM (inactive) | > 100 µM (inactive) | > 100 µM (inactive) | > 100 µM (inactive) | > 100 µM (inactive) | > 100 | > 100 µM (inactive) | > 100 µM (inactive) | > 100 µM (inactive) | > 100 µM (inactive) | > 100 µM (inactive) | > 100 µM (inactive) | > 100 µM (inactive) | > 100 µM (inactive) | > 100 µM (inactive) | > 100 µM (inactive) | > 100 µM (inactive) | > 100 µM (inactive) | > 100 µM (inactive)
3 | CC(=O)O/C=C\OC1CCCC1(c1ccccc1)c1ccccc1 (stereo not given) | 18 µM (inactive) | 20.4 µM (inactive) | 1.95 µM (inactive) | 4.5 µM (inactive) | 3.95 µM (inactive) | 1.98 µM (inactive) | 2.13 | 1.82 µM (inactive) | 2.91 µM (inactive) | 2.24 µM (inactive) | 2.79 µM (inactive) | 2.49 µM (inactive) | 2.84 µM (inactive) | 2.9 µM (inactive) | 2.1 µM (inactive) | 2.42 µM (inactive) | 2.92 µM (inactive) | 8.11 µM (inactive) | 14.4 µM (inactive) | 3.32 µM (inactive)
4 | CC(C)=CCC[C@H](C)[C@H]1CC[C@@H](C)c2cc(O)c(C)cc21 | 16.6 µM (inactive) | 17.1 µM (inactive) | 17.9 µM (inactive) | 15.7 µM (inactive) | 19.5 µM (inactive) | 18.4 µM (inactive) | 18.3 | 16.7 µM (inactive) | 20.6 µM (inactive) | 17.1 µM (inactive) | 21.4 µM (inactive) | 18.1 µM (inactive) | 19.5 µM (inactive) | 18.8 µM (inactive) | 15.5 µM (inactive) | 18.5 µM (inactive) | 16.8 µM (inactive) | 16.9 µM (inactive) | 19.1 µM (inactive) | 15.9 µM (inactive)
5 | CCOC(=O)/C(C#N)=C/c1ccnc2ccccc12 | > 100 µM (inactive) | > 100 µM (inactive) | 50.5 µM (inactive) | > 100 µM (inactive) | > 100 µM (inactive) | 2.19 µM (inactive) | 31.9 | 40.2 µM (inactive) | > 100 µM (inactive) | 40.2 µM (inactive) | 63.5 µM (inactive) | 31.8 µM (inactive) | 13.5 µM (inactive) | 53.7 µM (inactive) | > 100 µM (inactive) | 10.4 µM (inactive) | > 100 µM (inactive) | 93.1 µM (inactive) | > 100 µM (inactive) | 76.4 µM (inactive)
6 | Cc1cccc2c(N)c3cccc(C(=O)NCC[N+]4(Cc5ccc([N+](=O)[O-])cc5)CCOCC4)c3nc12 | 42.2 µM (inactive) | 31.5 µM (inactive) | 47.5 µM (inactive) | > 100 µM (inactive) | 27.3 µM (inactive) | 16.1 µM (inactive) | 45.1 | 22.4 µM (inactive) | 25.8 µM (inactive) | 20.6 µM (inactive) | 13.5 µM (inactive) | 35.9 µM (inactive) | > 95.1 µM (inactive) | 61.1 µM (inactive) | 61.9 µM (inactive) | 30.4 µM (inactive) | 15.6 µM (inactive) | 27.5 µM (inactive) | > 100 µM (inactive) | 3.99 µM (inactive)
7 | Cc1cc(C)c([S@@](=O)O[C@@H]2[C@H]3OC(C)(C)O[C@H]3O[C@@H]2[C@H]2COC(C)(C)O2)c(C)c1 | 11.8 µM (inactive) | 29.4 µM (inactive) | 15.1 µM (inactive) | 2.16 µM (inactive) | 29.1 µM (inactive) | 24.8 µM (inactive) | 42.9 | 16.6 µM (inactive) | 29.7 µM (inactive) | 4.24 µM (inactive) | 17 µM (inactive) | 31.6 µM (inactive) | 22 µM (inactive) | 19.7 µM (inactive) | 16.5 µM (inactive) | 19.1 µM (inactive) | 31.9 µM (inactive) | 29 µM (inactive) | 36.6 µM (inactive) | 21 µM (inactive)
8 | N#Cc1cnc(N)nc1NCC1(CO)CC(CCc2ccccc2)C1 (stereo not given) | 29 µM (inactive) | 14.3 µM (inactive) | > 100 µM (inactive) | > 100 µM (inactive) | > 100 µM (inactive) | 12 µM (inactive) | > 100 | 19.7 µM (inactive) | > 100 µM (inactive) | 55 µM (inactive) | 3.15 µM (inactive) | 63.4 µM (inactive) | 9.95 µM (inactive) | > 90.4 µM (inactive) | > 100 µM (inactive) | 47.3 µM (inactive) | > 55.6 µM (inactive) | 18.5 µM (inactive) | 27.1 µM (inactive) | > 100 µM (inactive)
9 | N#CC(C#N)=CNC(N)=S | > 100 µM (inactive) | > 100 µM (inactive) | > 100 µM (inactive) | > 100 µM (inactive) | > 100 µM (inactive) | > 100 µM (inactive) | > 100 | > 100 µM (inactive) | > 100 µM (inactive) | > 100 µM (inactive) | > 100 µM (inactive) | > 100 µM (inactive) | > 100 µM (inactive) | 1.5 µM (inactive) | > 100 µM (inactive) | > 100 µM (inactive) | > 100 µM (inactive) | > 100 µM (inactive) | > 100 µM (inactive) | > 100 µM (inactive)
10 | N#Cc1c2c(c(Nc3ccc(Cl)cc3)n3c1nc1ccccc13)CCCC2 | > 94.6 µM (inactive) | 43 µM (inactive) | > 70.1 µM (inactive) | 36.5 µM (inactive) | > 69.2 µM (inactive) | 8.65 µM (inactive) | 25.9 | > 37.4 µM (inactive) | 18.5 µM (inactive) | 47.4 µM (inactive) | 3.18 µM (inactive) | > 71.3 µM (inactive) | 44.1 µM (inactive) | 13.4 µM (inactive) | 16.2 µM (inactive) | 37.6 µM (inactive) | 44 µM (inactive) | 28.5 µM (inactive) | 54.7 µM (inactive) | 65.9 µM (inactive)
11 | O=C1CSC(c2cccc([N+](=O)[O-])c2)N1c1ccc(-c2ccc(-n3c(-c4ccccc4)nc4ccccc4c3=O)cc2)cc1 (stereo not given) | 64.7 µM (inactive) | 34.6 µM (inactive) | 23.3 µM (inactive) | > 100 µM (inactive) | 38.4 µM (inactive) | 24.7 µM (inactive) | 32.1 | > 100 µM (inactive) | 33.4 µM (inactive) | 35.3 µM (inactive) | 17.2 µM (inactive) | 59.8 µM (inactive) | 37.2 µM (inactive) | 23.3 µM (inactive) | 25.2 µM (inactive) | 40.7 µM (inactive) | 41.1 µM (inactive) | 45.8 µM (inactive) | > 100 µM (inactive) | 48.6 µM (inactive)
12 | O=c1[nH]c2c(c(=O)[nH]1)SSC2 | 25.7 µM (inactive) | 25.9 µM (inactive) | 2.25 µM (inactive) | 18.9 µM (inactive) | 13.8 µM (inactive) | 3.14 µM (inactive) | 27.7 | 2.51 µM (inactive) | 19.6 µM (inactive) | 22.3 µM (inactive) | 1.3 µM (inactive) | 12.7 µM (inactive) | 2.75 µM (inactive) | 19 µM (inactive) | 17.3 µM (inactive) | 4.16 µM (inactive) | 3.67 µM (inactive) | 18.5 µM (inactive) | 21.4 µM (inactive) | 2.75 µM (inactive)
13 | CCOC(=O)C1(C(=O)OCC)CN(CC)CN(c2ccccc2)C1 | > 100 µM (inactive) | 22.2 µM (inactive) | 20.8 µM (inactive) | 17.8 µM (inactive) | 30 µM (inactive) | 48.3 µM (inactive) | 16 | 16.5 µM (inactive) | 17.8 µM (inactive) | 19.6 µM (inactive) | 18.3 µM (inactive) | 18.4 µM (inactive) | 45.6 µM (inactive) | 18.5 µM (inactive) | 25.1 µM (inactive) | 21.5 µM (inactive) | 69.2 µM (inactive) | > 100 µM (inactive) | > 100 µM (inactive) | 37.1 µM (inactive)
14 | CC(C)C1CC(CO)(CNc2nc(N)nc(Cl)c2/C=N\O)C1 (stereo not given) | 12.3 µM (inactive) | 1.76 µM (inactive) | 11.7 µM (inactive) | 11.9 µM (inactive) | 15.6 µM (inactive) | 12.6 µM (inactive) | 15.7 | 12.5 µM (inactive) | 4.34 µM (inactive) | 15.7 µM (inactive) | 10.3 µM (inactive) | 0.519 µM (active) | 3.42 µM (inactive) | 13.7 µM (inactive) | 2.35 µM (inactive) | 15.5 µM (inactive) | 22.4 µM (inactive) | 1.01 µM (active) | 10.3 µM (inactive) | 23.2 µM (inactive)
